From PMC9233935 (Journal of medicinal chemistry, 2022)
pIC50: −log10 of the molar value. ≈ marks a conversion by molar mass, not a printed value.

Columns and labels:
Mtb gyrase = Mtb gyrase (Mycobacterium tuberculosis, UniProt P9WG45+P9WG47); assay: biochemical; format: biochemical
[1] = tested on: gyrA hypomorph (gyrA-FDAS-TetON-1); format: cell-based; conditions: fold-hypersensitivity
S. aureus ATTC 25923 [2] = tested on: S. aureus ATTC 25923
S. aureus ATTC 25923 [3] = assay: microbe, parasite or virus in culture; conditions: Staphylococcus aureus, ATTC25923, read-out: Sau MIC
M. tuberculosis H37Rv = assay: microbe, parasite or virus in culture; format: cell-based, Mycobacterium tuberculosis

Mtb gyrase, sequence (P9WG45 whole entry, looked up): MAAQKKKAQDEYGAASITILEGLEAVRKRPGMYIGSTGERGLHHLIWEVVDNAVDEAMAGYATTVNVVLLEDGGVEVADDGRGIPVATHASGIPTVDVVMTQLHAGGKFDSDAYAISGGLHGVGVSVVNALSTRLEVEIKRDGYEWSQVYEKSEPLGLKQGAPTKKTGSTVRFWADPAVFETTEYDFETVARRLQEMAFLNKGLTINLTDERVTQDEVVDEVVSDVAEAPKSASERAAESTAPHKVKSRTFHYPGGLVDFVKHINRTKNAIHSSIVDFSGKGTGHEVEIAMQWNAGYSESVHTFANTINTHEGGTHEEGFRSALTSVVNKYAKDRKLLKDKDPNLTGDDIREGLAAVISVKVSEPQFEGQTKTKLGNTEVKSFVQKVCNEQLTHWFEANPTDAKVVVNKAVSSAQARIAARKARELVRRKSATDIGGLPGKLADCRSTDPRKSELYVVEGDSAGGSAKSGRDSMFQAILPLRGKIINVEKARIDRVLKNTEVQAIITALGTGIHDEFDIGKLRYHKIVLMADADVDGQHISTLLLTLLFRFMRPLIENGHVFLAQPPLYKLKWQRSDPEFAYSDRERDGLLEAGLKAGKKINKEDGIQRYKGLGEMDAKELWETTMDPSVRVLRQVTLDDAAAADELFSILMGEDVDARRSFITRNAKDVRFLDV
Mtb gyrase, sequence (P9WG47 whole entry, looked up): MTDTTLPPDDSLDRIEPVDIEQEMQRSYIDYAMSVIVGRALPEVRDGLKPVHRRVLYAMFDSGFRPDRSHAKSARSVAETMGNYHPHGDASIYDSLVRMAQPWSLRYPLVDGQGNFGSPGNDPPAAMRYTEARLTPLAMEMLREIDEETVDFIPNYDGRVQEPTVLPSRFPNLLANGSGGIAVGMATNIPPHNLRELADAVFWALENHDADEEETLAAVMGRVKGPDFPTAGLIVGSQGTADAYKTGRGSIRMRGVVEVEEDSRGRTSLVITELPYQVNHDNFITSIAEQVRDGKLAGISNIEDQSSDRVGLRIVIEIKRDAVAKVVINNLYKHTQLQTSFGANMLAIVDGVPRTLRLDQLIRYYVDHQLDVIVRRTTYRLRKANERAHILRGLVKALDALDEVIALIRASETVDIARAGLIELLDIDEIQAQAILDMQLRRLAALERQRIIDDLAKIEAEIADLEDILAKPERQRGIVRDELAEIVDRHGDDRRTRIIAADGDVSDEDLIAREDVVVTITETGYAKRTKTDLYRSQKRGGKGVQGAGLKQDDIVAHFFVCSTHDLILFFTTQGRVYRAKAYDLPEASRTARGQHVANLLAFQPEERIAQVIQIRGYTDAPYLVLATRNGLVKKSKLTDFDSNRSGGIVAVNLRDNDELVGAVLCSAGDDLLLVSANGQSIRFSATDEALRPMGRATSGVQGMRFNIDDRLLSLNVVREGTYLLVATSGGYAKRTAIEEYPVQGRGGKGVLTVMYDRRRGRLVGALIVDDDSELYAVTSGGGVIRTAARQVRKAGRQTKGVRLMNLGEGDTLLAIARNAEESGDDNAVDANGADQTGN

Compound: C[C@@H]1CN2c3c(cc4c(N5CC[C@H](O)C5)noc4c3F)CC3(C(=O)NC(=O)NC3=O)[C@H]2[C@H](C)O1 [Compound 8, (2R,4S,4aS)-11-fluoro-8-((S)-3-hydroxypyrrolidin-1-yl)-2,4-dimethyl-1,2,4,4a-tetrahydro-2’H,6H-spiro[isoxazolo[4,5-g][1,4]oxazino[4,3-a]quinoline-5,5’-pyrimidine]-2’,4’,6’(1’H,3’H)-trione]
- Mtb gyrase IC50 fold higher (less potent) than moxifloxacin (Mtb gyrase): ≤ 2 fold
- Ratio (WT/hypomorph) MIC [1]: 2.5
- Ratio (WT/hypomorph) MIC50 [1]: 3.6
- fold less active against S. aureus than zoliflodacin (S. aureus ATTC 25923 [2]): > 200 fold

Compound: C[C@@H]1CN2c3c(cc4c(N5CC[C@@H](O)C5)noc4c3F)CC3(C(=O)NC(=O)NC3=O)[C@H]2[C@H](C)O1 [Compound 9, (2R,4S,4aS)-11-fluoro-8-((R)-3-hydroxypyrrolidin-1-yl)-2,4-dimethyl-1,2,4,4a-tetrahydro-2’H,6H-spiro[isoxazolo[4,5-g][1,4]oxazino[4,3-a]quinoline-5,5’-pyrimidine]-2’,4’,6’(1’H,3’H)-trione]
- MIC (S. aureus ATTC 25923 [3]): 64 µM (≈ 30.3 µg/mL)

Compound: C[C@@H]1CN2c3c(cc4c(N5C[C@@H](O)[C@H](O)C5)noc4c3F)CC3(C(=O)NC(=O)NC3=O)[C@H]2[C@H](C)O1 [Compound 10, (2R,4S,4aS)-8-((3R,4R)-3,4-dihydroxypyrrolidin-1-yl)-11-fluoro-2,4-dimethyl-1,2,4,4a-tetrahydro-2’H,6H-spiro[isoxazolo[4,5-g][1,4]oxazino[4,3-a]quinoline-5,5’-pyrimidine]-2’,4’,6’(1’H,3’H)-trione]
- Mtb gyrase IC50 fold higher (less potent) than moxifloxacin (Mtb gyrase): ≤ 2 fold
- Ratio (WT/hypomorph) MIC [1]: 2.1
- Ratio (WT/hypomorph) MIC50 [1]: 2.9

Compound: C[C@@H]1CN2c3c(cc4c(N5C[C@H](O)[C@@H](O)C5)noc4c3F)CC3(C(=O)NC(=O)NC3=O)[C@H]2[C@H](C)O1 [Compound 11, (2R,4S,4aS)-8-((3S,4S)-3,4-dihydroxypyrrolidin-1-yl)-11-fluoro-2,4-dimethyl-1,2,4,4a-tetrahydro-2’H,6H-spiro[isoxazolo[4,5-g][1,4]oxazino[4,3-a]quinoline-5,5’-pyrimidine]-2’,4’,6’(1’H,3’H)-trione]
- MIC (S. aureus ATTC 25923 [3]): > 125 µM

Compound: C[C@@H]1CN2c3c(cc4c(N5C[C@@H](O)[C@@H](O)C5)noc4c3F)CC3(C(=O)NC(=O)NC3=O)[C@H]2[C@H](C)O1 [Compound 12, (2R,4S,4aS)-8-((3R,4S)-3,4-dihydroxypyrrolidin-1-yl)-11-fluoro-2,4-dimethyl-1,2,4,4a-tetrahydro-2’H,6H-spiro[isoxazolo[4,5-g][1,4]oxazino[4,3-a]quinoline-5,5’-pyrimidine]-2’,4’,6’(1’H,3’H)-trione]
- MIC (S. aureus ATTC 25923 [3]): > 125 µM

Compound: C[C@@H]1CN2c3c(cc4c(N5CC[C@H](N)C5)noc4c3F)CC3(C(=O)NC(=O)NC3=O)[C@H]2[C@H](C)O1 [Compound 16, (2R,4S,4aS)-8-((S)-3-aminopyrrolidin-1-yl)-11-fluoro-2,4-dimethyl-1,2,4,4a-tetrahydro-2’H,6H-spiro[isoxazolo[4,5-g][1,4]oxazino[4,3-a]quinoline-5,5’-pyrimidine]-2’,4’,6’(1’H,3’H)-trione]
- Mtb gyrase IC50 fold higher (less potent) than moxifloxacin (Mtb gyrase): around 2 fold
- fold higher Mtb MIC compared to 8 (M. tuberculosis H37Rv): 9 to16 fold

Compound: C[C@@H]1CN2c3c(cc4c(N5CCC[C@@H](O)C5)noc4c3F)CC3(C(=O)NC(=O)NC3=O)[C@H]2[C@H](C)O1 [Compound 22, (2R,4S,4aS)-11-fluoro-8-((R)-3-hydroxypiperidin-1-yl)-2,4-dimethyl-1,2,4,4a-tetrahydro-2’H,6H-spiro[isoxazolo[4,5-g][1,4]oxazino[4,3-a]quinoline-5,5’-pyrimidine]-2’,4’,6’(1’H,3’H)-trione]
- MIC (S. aureus ATTC 25923 [3]): 94 µM (≈ 45.8 µg/mL)

Compound: C[C@@H]1CN2c3c(cc4c(OC[C@H]5CCC(=O)N5)noc4c3F)CC3(C(=O)NC(=O)NC3=O)[C@H]2[C@H](C)O1 [Compound 24, (2R,4S,4aS)-11-fluoro-2,4-dimethyl-8-(((R)-5-oxopyrrolidin-2-yl)methoxy)-1,2,4,4a-tetrahydro-2’H,6H-spiro[isoxazolo[4,5-g][1,4]oxazino[4,3-a]quinoline-5,5’-pyrimidine]-2’,4’,6’(1’H,3’H)-trione]
- MIC (S. aureus ATTC 25923 [3]): > 125 µM

Compound: C[C@@H]1CN2c3c(cc4c(OC[C@@H]5COC(=O)N5)noc4c3F)CC3(C(=O)NC(=O)NC3=O)[C@H]2[C@H](C)O1 [Compound 28, (2R,4S,4aS)-11-fluoro-2,4-dimethyl-8-(((R)-2-oxooxazolidin-4-yl)methoxy)-1,2,4,4a-tetrahydro-2’H,6H-spiro[isoxazolo[4,5-g][1,4]oxazino[4,3-a]quinoline-5,5’-pyrimidine]-2’,4’,6’(1’H,3’H)-trione]
- MIC (S. aureus ATTC 25923 [3]): 63 µM (≈ 31.7 µg/mL)

Compound: C[C@@H]1CN2c3c(cc4c(N5CC[C@H](O)C5)noc4c3F)CC3(C(=O)NC(=O)NC3=O)[C@H]2[C@H](C)N1C#N [Compound 40, (2R,4S,4aS)-11-fluoro-8-((S)-3-hydroxypyrrolidin-1-yl)-2,4-dimethyl-2’,4’,6’-trioxo-1,1’,2,3’,4,4a,4’,6’-octahydro-2’H,3H,6H-spiro[isoxazolo[4,5-g]pyrazino[1,2-a]quinoline-5,5’-pyrimidine]-3-carbonitrile]
- pIC50 (Mtb gyrase): 4.72
- Ratio (WT/hypomorph) MIC [1]: 2.0
- Ratio (WT/hypomorph) MIC50 [1]: 3.1
- MIC (S. aureus ATTC 25923 [3]): > 125 µM

Compound: C[C@@H]1CN2c3c(cc4c(OC[C@@H]5CCC(=O)N5)noc4c3F)CC3(C(=O)NC(=O)NC3=O)[C@H]2[C@H](C)N1C#N [Compound 42, (2R,4S,4aS)-11-fluoro-2,4-dimethyl-2’,4’,6’-trioxo-8-(((S)-5-oxopyrrolidin-2-yl)methoxy)-1,1’,2,3’,4,4a,4’,6’-octahydro-2’H,3H,6H-spiro[isoxazolo[4,5-g]pyrazino[1,2-a]quinoline-5,5’-pyrimidine]-3-carbonitrile]
- pIC50 (Mtb gyrase): 5.59

Compound: Cc1nnc(-c2noc3c(F)c4c(cc23)CC2(C(=O)NC(=O)NC2=O)[C@H]2[C@H](C)O[C@H](C)CN42)o1 [Methyl-oxadiazole 5, reference compound]
- fold more potent as inhibitor of Mtb gyrase than moxifloxacin (Mtb gyrase): 5 fold
- fold less active against Mtb than moxifloxacin (M. tuberculosis H37Rv): 10 fold
- MIC (M. tuberculosis H37Rv; Mycobacterium tuberculosis, H37RV, read-out: Mtb MIC): 1.7 µM (≈ 0.8 µg/mL)

Compound: (2R,4S,4aS)-11-fluoro-2,4-dimethyl-8-((S)-3-(methylamino)pyrrolidin-1-yl)-1,2,4,4a-tetrahydro-2’H-spiro[isoxazolo[5’,4’:4,5]benzo[1,2-b][1,4]oxazino[4,3-d][1,4]oxazine-5,5’-pyrimidine]-2’,4’,6’(1’H,3’H)-trione [Compound 17]
- Mtb MIC (M. tuberculosis H37Rv): 63 µM
- fold higher Mtb MIC compared to 8 (M. tuberculosis H37Rv): 9 to16 fold
- Sau MIC (S. aureus ATTC 25923 [2]): 125 µM
